Data reported in patent US20160361443A1, “Ultrasound Molecular Imaging With Targeted Biocompatible Microbubbles” (University of Pittsburgh - Of the Commonwealth System of …, priority 2015, published 2016).
Values joined by “and” are separate entries in the source; they are usually repeats but may differ in a detail not shown here. Equal values may be shown once. “Also recorded” adds a separate entry of the source. Where no end group is shown, it is not given here. Side-chain parts run from the residue outwards. microbubble albumin shell = not defined here

T1: E-selectin (Rattus norvegicus, UniProt P98105)
T1 construct: Immunofluorescent staining in all rats consistently confirmed microvascular E-selectin and ICAM-1 expression in postischemic myocardium; from tissue
T1 sequence (P98105 22-549): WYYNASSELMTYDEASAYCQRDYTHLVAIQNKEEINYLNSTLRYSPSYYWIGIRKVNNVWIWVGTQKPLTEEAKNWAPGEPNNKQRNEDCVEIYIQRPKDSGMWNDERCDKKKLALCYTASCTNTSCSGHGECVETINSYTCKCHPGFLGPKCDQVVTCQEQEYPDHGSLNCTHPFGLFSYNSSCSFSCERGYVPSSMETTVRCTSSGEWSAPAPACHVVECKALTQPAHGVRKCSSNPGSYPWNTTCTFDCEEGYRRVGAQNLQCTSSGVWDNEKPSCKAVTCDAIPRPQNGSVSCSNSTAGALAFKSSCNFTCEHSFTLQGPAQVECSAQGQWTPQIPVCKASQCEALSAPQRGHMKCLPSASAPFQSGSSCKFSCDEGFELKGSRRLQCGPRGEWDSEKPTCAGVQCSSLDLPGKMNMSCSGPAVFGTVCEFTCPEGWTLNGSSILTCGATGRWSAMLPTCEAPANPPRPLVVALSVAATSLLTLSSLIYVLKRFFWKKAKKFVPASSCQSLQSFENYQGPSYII

T2: human E-selectin on TNFα-activated HUVEC cells (human, UniProt P16581 22-610)
T2 construct: whole, on cells
T2 sequence (looked up): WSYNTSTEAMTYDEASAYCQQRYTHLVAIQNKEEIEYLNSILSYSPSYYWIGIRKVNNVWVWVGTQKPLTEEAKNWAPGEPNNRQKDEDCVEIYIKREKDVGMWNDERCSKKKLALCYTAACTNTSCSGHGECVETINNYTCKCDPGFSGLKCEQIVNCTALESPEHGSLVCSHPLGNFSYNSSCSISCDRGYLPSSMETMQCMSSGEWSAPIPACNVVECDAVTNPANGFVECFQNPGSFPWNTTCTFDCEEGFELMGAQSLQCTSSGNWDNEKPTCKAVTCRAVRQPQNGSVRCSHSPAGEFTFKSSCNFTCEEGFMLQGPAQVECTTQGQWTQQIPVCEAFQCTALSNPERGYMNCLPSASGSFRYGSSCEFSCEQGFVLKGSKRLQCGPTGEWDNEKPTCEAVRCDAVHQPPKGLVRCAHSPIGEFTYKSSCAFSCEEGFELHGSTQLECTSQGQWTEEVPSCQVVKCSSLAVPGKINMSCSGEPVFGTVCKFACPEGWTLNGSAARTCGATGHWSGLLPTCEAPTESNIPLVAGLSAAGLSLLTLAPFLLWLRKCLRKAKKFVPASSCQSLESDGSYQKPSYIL


Legend:
[1] = tested on: Rat heart microvascular ECs; test: Parallel plate perfusion chamber, MB adhesion to cultured endothelial cells; assay type: cell-based; details: for MB adhesion to inflamed (activated) ECs: IL-1b-activated ECs; for MB adhesion to inflamed (activated) ECs / MB adhesion to noninflamed (normal) ECs: 5×10^6 MB in 1 mL, wall shear rate 200 s-1; for MB adhesion to activated versus normal ECs (in words): in vitro flow chamber
Description: (§1) Targeted biodegradable polymer MB (3.4±1.3μm) were prepared bearing a 12-mer synthetic peptide on the surface with specific E-selectin affinity (MBESEL). See, FIG. 7. Control MB had scrambled peptide (MBCTL) or non-specific IgG (MBIgG). MB adhesion to cultured rat endothelial cells (EC) was assessed in a parallel plate flow system (n=3/condition). Intravital microscopy of rat cremaster microcirculation was performed after i.v. injection of each MB type under basal or activated conditions (scrotal TNF 5μg) (n=3 rats/condition). To determine if binding events could be imaged, 6 rats had 15 min coronary artery occlusion. After 4 hrs reflow, each rat received separate i.v. boluses of MBESEL, MBCTL, and MBIgG. Non-linear echo imaging was performed 3 and 3.5 min later. Videointensity (VI) differences between the 2 time points was attributed to target-specific signal.
Cultured rat heart microvessel endothelial cells were placed on glass cover slips. The cells were then stimulated with IL-1β (2 ng/ml) for 4 hrs and then perfused with 1 mL microbubbles (5×10^6 /mL)-MBE-SEL or MBCTL. These microbubbles were then subjected to a wall shear rate of 200 sec-1. See, FIG. 8. 20 random fields (n=3) were assessed. […] FIGS. 9A and 9B.
A parallel plate perfusion chamber was used to quantify MB adhesion to cultured endothelial cells (ECs).12 Rat heart microvascular ECs (VEC Technologies, Rensselaer, N.Y.) were grown to confluence on 25 mm 3 75 mm glass coverslips. Cells were incubated for 5 hours with 5 ng/mL interleukin-1b (Sigma-Aldrich, St. Louis, Mo.) to cause activation. Coverslips with normal or IL-1b-activated ECs ([…]; 3/condition) were mounted in the chamber and perfused with one of the three MB species (5×10^6 MB in 1 mL culture medium) at a wall shear rate of 200 s-1, followed by an additional 3 mL of plain culture medium. The chamber was then mounted on a microscope (Nikon TE200) and 20 random bright-field images (3 100) of the ECs were captured (ORCA285, Hamamatsu, Bridgewater, N.J.). The mean number of attached MBs/ECs was counted offline.

[2] = tested on: rat cremaster muscle microcirculation; test: Intravital microscopy of MB adhesion in vivo; details: for MB adhesion to inflamed microcirculation: TNF-a 5 μg intrascrotal; for MB adhesion to normal or inflamed microcirculation (in words): basal or TNF-a activated
Description: as §1
An intravital microscopy of rat cremaster muscle microcirculation was performed after intravenous injection of 1×10^8 MBE-SEL or MBCTL (n=3 per condition). Non-inflamed: 4 hrs after intrascrotal injection of saline. Inflamed : 4 hrs after intrascrotal injection of TNF-α (5 μg). Real-time images were captured and microbubble adhesion was quantified in venules at 5 minutes after microbubble injection in 20 random fields. See, FIGS. 10A and 10B.
Microscopy of the rat cremaster muscle microcirculation was used for real-time visualization of MB adhesion in vivo. Sprague Dawley rats (100-120 g) received intrascrotal injection of either tumor necrosis factor a (n=9, 5 μg, Thermo Scientific, Waltham, Mass.) or 1 mL saline (n=9). Four hours later, the cremaster muscle was exteriorized and mounted on an inverted fluorescent microscope (Nikon TE200). Each rat received one intravenous injection (1×10^8 MB) of either MBESEL or control MBs (MBCTL or MBIgG) in […], followed by a […] ([…], 3 rats per MB type/inflammatory status combination, total 6 groups). Five minutes after injection, bright-field microscopic imaging of 20 random fields was performed to identify microvessels, and epi-illumination fluorescent imaging was performed to identify MBs, followed by pentobarbital overdose. Images were analyzed offline for MB adhesion per field of view, defined as MB immobility lasting≧30 seconds.
(§2) All protocols were approved by the Institutional Animal Care and Use Committee at the University of Pittsburgh. […] (Sprague Dawley, Harlan Laboratories, Indianapolis, Ind.) were anesthetized with intraperitoneal sodium pentobarbital (50 mg/kg) and maintained with 1.5 to 2.0% inhaled isoflurane. Body temperature was maintained at 37° C. with a heating pad. The internal jugular vein was cannulated with a 20-gauge catheter for MB injection.

E-selectin = biological target: T1, E-selectin; test: Ultrasound molecular imaging in rat myocardial ischemia-reperfusion model; assay type: in vivo; details: for Contrast enhancement of postischemic myocardium (in words): 4 h after reperfusion, 3 min after MB injection
Description: as §1
An open chest rat model of myocardial ischemia-reperfusion (n=6) was performed where the left anterior descending coronary artery was occluded for 15 minutes then reperfused. See, FIG. 11. At 4 hrs of reflow, the rat received separate i.v. injections of MBE-SEL or MBCTL (2.5×10^7 MBs). Triggered ultrasound imaging (8 MHz, MI 0.6, Sequoia CPS, Siemens) was performed 3 min after injection, followed by 5 destruction frames (MI 1.9) and a second imaging frame (MI 0.6) at 3.5 minutes. The videointensity difference between the two imaging frames was attributed to microbubble adhesion. See, FIG. 12.
as §2
A previously described rat model of acute myocardial ischemia and reperfusion was used for UMI of E-selectin overexpression as a marker of ischemic memory.^3 Anesthetized rats (n=6, 150-200 g) were intubated and mechanically ventilated. A lateral thoracotomy was performed, and the left anterior descending (LAD) coronary artery was occluded for 15 minutes and then reperfused. After 4 hours of reflow, each rat received separate intravenous injections of MBESEL, MBCTL, and MBIgG in random order (2.5×10^7 MBs in […] followed by a […]), and ultrasound imaging was performed as described below.
Thereafter, high mechanical index (MI) burst pulses were sent to ensure that all adhered and freely circulating MBs were destroyed prior to any subsequent injection. Typically, subsequent injections were given 5 minutes after MBs could no longer be detected in the left ventricular cavity on ultrasound imaging. The MB dosage was empirically chosen based on pilot studies assessing myocardial enhancement from various doses. At the end of the experiment, the LAD coronary artery was reoccluded, nontargeted myocardial contrast echocardiography (MCE) using plain lipid MBs was performed to delineate the risk area, and the rat was euthanized using pentobarbital overdose. Open-chest MCE in the short-axis view was performed using a contrast-specific imaging mode combining phase and amplitude modulation of the transmit signal (Cadence Contrast Pulse Sequencing, Sequoia 512, Siemens Ultrasound, Mountain View, Calif.) from a linear array transducer (15 L8) operating at 8 MHz. Probe position, dynamic range, gain settings, and focus were initially optimized and maintained constant. Ultrasound detection of bound MBs was performed using a previously described approach.^12,13 After 3 minutes to allow MB retention and washout of unbound MBs, end-systolic imaging was performed at an MI of 0.6, followed by an ultrasound burst pulse at MI of 1.9 to destroy the MBs and then end-systolic imaging 30 seconds later at MI 0.6. […]

[3] = biological target: T2, human E-selectin on TNFα-activated …; test: in vitro flow chamber, TNFα-activated HUVEC
[4] = 4 h, 1×10^8 MB i.v., 5 min after injection
[5] = 15 min LAD occlusion, 4 h reflow, 2.5×10^7 MBs i.v., 3 min after injection

Molecule | MB adhesion to inflamed (activated) ECs [1] | MB adhesion to activated versus normal ECs (in words) [1] | MB adhesion to activated versus normal ECs (in words) ([1]; listed as MBcontrl) | MB adhesion to noninflamed (normal) ECs [1] | MB adhesion to inflamed microcirculation [2, 4] | MB adhesion to normal or inflamed microcirculation (in words) [2] | Background-subtracted videointensity, postischemic (LAD) bed (E-selectin; [5]) | Contrast enhancement of postischemic myocardium (in words) (E-selectin) | MB adhesion to activated versus normal ECs (in words) ([1]; listed as MBE-SEL) | MB adhesion to activated versus normal ECs (in words) ([1]; listed as MBEsel) | MB adhesion to inflamed microcirculation (Example II) ([2]; activated conditions (scrotal TNF 5μg)) | MB adhesion to non-inflamed microcirculation (Example II) ([2]; basal conditions) | MB adhesion to noninflamed microcirculation ([2]; saline intrascrotal, 4 h, 1×10^8 MB i.v., 5 min after injection) | Background-subtracted videointensity, nonischemic bed (E-selectin; [5]) | Contrast enhancement of postischemic myocardium (in words) (E-selectin; listed as MBEsel) | Linear relationship, size of risk area vs size of region of persistent contrast enhancement (r) (E-selectin; y=0.98x-0.01) | binding result [3]
MBCTL: Control microbubbles linked to the 12-mer randomized AF10166 sequence (H2NWKLDTLDMIWQD-COOH) via biotin-streptavidin (also: linked to microbubbles via biotin-streptavidin, site not given here) [reference compound] | 4.1±0.6 MB/EC and 5±2 MB/EC | no difference | minimal adhesion | 4±1 MB/EC | 1.5±0.3 MBs/field | minimal attachment; also recorded: minimal adhesion | 4.0±1.0 dB and 4±1 dB | not seen | – | – | – | – | – | – | – | – | –
MBESEL: Double-layer albumin/PDLLA microbubbles conjugated with E-selectin targeting peptide AF10166 via biotin-streptavidin bridging chemistry (DITWDQLWDLMK; also: biotinylated, site not given here, on microbubble via biotin-streptavidin) | 17.4±1.8 MB/EC and 17±2 MB/EC | – | – | 5.9±3.4 MB/EC and 5±3 MB/EC | 4.8±1.2 MBs/field | adhesion to inflamed circulation (arrows) but not to control, noninflamed circulation | 11.6±2.7 dB and 12±3 dB | persistent contrast enhancement of the previously ischemic LAD coronary artery territory | superior binding | greater adhesion | 96±23 MB/field | 34±8 MB/field | 1.7±0.4 MBs/field | 3.6±0.8 dB and 4±1 dB | higher | 0.92 | –
C([BM(PEG)3-microbubble albumin shell])DITWDQLWDLMK (reading uncertain; also: thioether-conjugated to polymer/albumin microbubble, also called microbubble Esel(MAL); E-sel target MB (Mal)) | – | – | – | – | – | – | – | – | – | – | – | – | – | – | – | – | binds
DITWDQLWDLMK (also: biotinylated, site not given here, held on microbubble shell by biotin-streptavidin bridging, The peptide stood in the assays as many copies on a gas-filled microbubble (outer shell crosslinked human albumin, inner layer PDLLA); streptavidin and albumin shell are not; also called E-selectin targeted microbubble; MBEsel (biotin-streptavidin linker)) | – | – | – | – | – | – | – | – | – | – | – | – | – | – | – | – | binds
